# Earlier results as cited in US8623868B2, “Processes of making and using pharmaceutical formulations of antineoplastic agents” (Merck Sharp & Dohme Corp., priority 2002, dated 2014).
# Experiments:
# advanced melanoma [1] = details: patients having advanced melanoma; Newlands et al., Br J Cancer 1992
# advanced melanoma [2] = details: patients with advanced melanoma; Journal of Clinical Oncology 13(4) 1995
smiles,measurement,setting,value
Cn1nnc2c(C(N)=O)ncn2c1=O [Temozolomide],"clinical responses achieved, % of patients",advanced melanoma [1],17%
same,"clinical response achieved, % of patients",advanced melanoma [2],21%
same,water solubility,,water-insoluble
